A value given as a limit tells only on which side of the number the result lay.

One assay has as its target HDAC1 (Homo sapiens, UniProt Q13547). Description: Histone deacetylase activity, continuous trypsin-coupled assay. It is filed as biochemical. The note with it: trypsin-coupled fluorescence assay, acetyl-Gly-Ala-(N-acetyl-Lys)-AMC substrate. As for the experimental part:
(§1) HDAC activity is measured using a continuous trypsin-coupled assay that has been described in detail previously (US 20070281934; Schultz et. al., Biochemistry, 43 (34), 11083-11091, 2004; Kim et al. (2006), Methods Mol. Biol., 325:273-283). For inhibitor characterization, measurements are performed in a reaction volume of 100 µL using 96-well assay plates in a fluorescence plate reader. For each isozyme, the HDAC protein in reaction buffer (50 mM HEPES, 100 mM KCl, 0.001% Tween-20, 5% DMSO, pH 7.4, supplemented with bovine serum albumin at concentrations of 0-0.05%, is mixed with inhibitor at various concentrations and allowed to incubate for 15 minutes. Trypsin is added to a final concentration of 50 nM, and acetyl-Gly-Ala-(N-acetyl-Lys)-AMC is added to a final concentration of 25-100 μM to initiate the reaction. After a 30 minute lag time, the fluorescence is measured over a 30 minute time frame using an excitation wavelength of 355 nm and a detection wavelength of 460 nm. The increase in fluorescence with time is used as the measure of the reaction rate. Inhibition constants Ki(app) were obtained using the program BatchKi (Biokin, Pullman, Wash.).

For the next assay, the target named is T1, HDAC6 (Homo sapiens, UniProt Q9UBN7).
T1 sequence (Q9UBN7 1-1215): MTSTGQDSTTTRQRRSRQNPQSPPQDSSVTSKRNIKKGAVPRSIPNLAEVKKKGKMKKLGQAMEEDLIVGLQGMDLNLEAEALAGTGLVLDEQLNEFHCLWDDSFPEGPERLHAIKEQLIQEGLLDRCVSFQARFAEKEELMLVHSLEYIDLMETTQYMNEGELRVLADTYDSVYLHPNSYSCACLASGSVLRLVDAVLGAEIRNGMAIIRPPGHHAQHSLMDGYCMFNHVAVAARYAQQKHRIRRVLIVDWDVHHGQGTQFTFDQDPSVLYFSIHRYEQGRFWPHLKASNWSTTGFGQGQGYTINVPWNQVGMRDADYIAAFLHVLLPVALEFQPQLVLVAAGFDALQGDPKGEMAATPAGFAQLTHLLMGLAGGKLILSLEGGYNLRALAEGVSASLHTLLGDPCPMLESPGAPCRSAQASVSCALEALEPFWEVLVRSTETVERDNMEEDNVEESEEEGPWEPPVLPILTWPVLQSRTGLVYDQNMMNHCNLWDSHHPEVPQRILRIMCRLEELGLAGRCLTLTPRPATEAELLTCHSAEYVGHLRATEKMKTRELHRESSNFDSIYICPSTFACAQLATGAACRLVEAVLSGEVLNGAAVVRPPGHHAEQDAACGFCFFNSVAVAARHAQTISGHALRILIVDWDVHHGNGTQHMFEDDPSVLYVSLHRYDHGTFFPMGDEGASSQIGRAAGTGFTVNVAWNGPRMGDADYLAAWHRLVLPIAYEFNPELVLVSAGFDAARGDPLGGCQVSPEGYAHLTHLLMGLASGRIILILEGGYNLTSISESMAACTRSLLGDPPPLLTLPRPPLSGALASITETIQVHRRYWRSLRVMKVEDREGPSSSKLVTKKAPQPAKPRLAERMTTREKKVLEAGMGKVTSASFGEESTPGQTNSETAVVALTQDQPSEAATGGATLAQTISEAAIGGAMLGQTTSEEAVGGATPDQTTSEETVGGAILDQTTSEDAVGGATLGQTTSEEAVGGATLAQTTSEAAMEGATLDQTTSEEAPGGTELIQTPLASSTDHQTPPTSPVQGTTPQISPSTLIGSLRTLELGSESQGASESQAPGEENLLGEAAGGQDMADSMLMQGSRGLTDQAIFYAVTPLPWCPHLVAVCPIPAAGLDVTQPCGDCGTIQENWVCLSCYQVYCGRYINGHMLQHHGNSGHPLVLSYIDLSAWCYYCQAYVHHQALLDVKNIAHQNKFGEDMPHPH
The description is as above. The note with it: trypsin-coupled fluorescence assay, acetyl-Gly-Ala-(N-acetyl-Lys)-AMC substrate. It is filed as biochemical. As for the experimental part: as §1

Another assay deals with T2, HDAC8 (Homo sapiens, UniProt Q9BY41).
T2 sequence (Q9BY41 1-377): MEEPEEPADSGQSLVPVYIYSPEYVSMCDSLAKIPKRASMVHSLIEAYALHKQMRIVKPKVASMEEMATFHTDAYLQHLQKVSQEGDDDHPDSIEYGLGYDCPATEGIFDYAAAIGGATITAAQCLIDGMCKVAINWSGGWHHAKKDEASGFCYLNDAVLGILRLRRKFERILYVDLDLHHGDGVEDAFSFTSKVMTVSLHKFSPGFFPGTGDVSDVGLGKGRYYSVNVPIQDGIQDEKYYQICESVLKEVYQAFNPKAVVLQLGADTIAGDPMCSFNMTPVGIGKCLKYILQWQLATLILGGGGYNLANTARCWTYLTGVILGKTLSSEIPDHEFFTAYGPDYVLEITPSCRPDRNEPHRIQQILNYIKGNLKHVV
Described as above. The assay is classed as biochemical. The note with it: trypsin-coupled fluorescence assay, acetyl-Gly-Ala-(N-acetyl-Lys)-AMC substrate. On the procedure: as §1

In a further assay the test system is Jurkat cells. Description: Cell proliferation assay, growth inhibition by Alamar Blue. The note with it: Homo sapiens, 72 h, treated with compound for 3 days. It is filed as cell-based. On the procedure:
Cell lines are obtained from DSMZ (Braunschweig, Germany) or ATCC (Manassas, Va.). Cells are grown in RPMI 1640 with 10% fetal bovine serum in a 5% CO2/air incubator at 37° C. Thapsigargin and BAPTA-AM are from Calbiochem (San Diego, Calif.). 3-((dimethylamino)methyl)-N-(2-(4-(hydroxycarbamoyl)phenoxy)ethyl)benzofuran-2-carboxamide is a broad-spectrum HDAC inhibitor which was synthesized as previously described. Other analogs with varying degrees of specificity towards the HDAC isoforms are synthesized as described herein.
Tumor cell lines and human umbilical vein endothelial cells (HUVEC) are cultured for at least two doubling times, and growth is monitored at the end of compound exposure using an Alamar Blue™ (Biosource, Camarillo, Calif.) fluorometric cell proliferation assay as recommended by the manufacturer. Compounds are assayed in triplicate wells in 96-well plates. The concentration required to inhibit cell growth by 50% (GI50) and 95% confidence intervals are estimated from nonlinear regression using a 4-parameter logistic equation. The effect of HDAC8 selective inhibitor compounds on cell proliferation in Jurkat cells is measured. Apoptosis is measured by Annexin-V flow cytommetry. Growth inhibiton iss measured by Alamar Blue assay. Cells are treated with compound for 3 days.

Sequence of HDAC1 (Q13547 whole entry): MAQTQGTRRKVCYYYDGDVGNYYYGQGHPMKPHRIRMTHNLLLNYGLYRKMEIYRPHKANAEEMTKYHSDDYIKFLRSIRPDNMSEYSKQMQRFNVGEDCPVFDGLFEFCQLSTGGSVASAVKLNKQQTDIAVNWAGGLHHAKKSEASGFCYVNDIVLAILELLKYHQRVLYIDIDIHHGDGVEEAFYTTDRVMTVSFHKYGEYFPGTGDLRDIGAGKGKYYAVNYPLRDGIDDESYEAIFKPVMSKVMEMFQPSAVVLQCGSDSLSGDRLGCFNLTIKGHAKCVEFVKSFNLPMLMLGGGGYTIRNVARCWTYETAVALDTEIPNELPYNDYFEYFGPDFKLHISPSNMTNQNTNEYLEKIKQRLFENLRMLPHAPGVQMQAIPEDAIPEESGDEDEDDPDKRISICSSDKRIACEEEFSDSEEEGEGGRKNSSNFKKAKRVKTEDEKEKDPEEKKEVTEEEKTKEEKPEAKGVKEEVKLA

One may read the IC50 as the concentration needed to halve the response being measured. Turning to `COCCOc1ccc(/C=C/C(=O)NO)c(Oc2ccc(Cl)c(Cl)c2)c1` [Compound 80, (E)-3-(2-(3,4-dichlorophenoxy)-4-(2-methoxyethoxy)phenyl)-N-hydroxyacrylamide], the IC50 is above 10 µM against HDAC1, 1 to 10 µM on HDAC6 and at most 0.1 µM against HDAC8.

Regarding `O=C(/C=C/c1ccc(OCc2cccnc2)cc1Oc1cccc(Cl)c1)NO` [Compound 59, (E)-3-(2-(3-chlorophenoxy)-4-(pyridin-3-ylmethoxy)phenyl)-N-hydroxyacrylamide], the IC50 is 1 to 10 µM against HDAC1, 0.1 to 1 µM against HDAC6 and at most 0.1 µM against HDAC8.

Usually GI50 stands for the concentration that inhibits growth by half. On to `Cc1cccc(Oc2ccccc2/C=C/C(=O)NO)c1` [Compound 13, (E)-N-hydroxy-3-(2-(m-tolyloxy)phenyl)acrylamide], for which, in the assay with Jurkat cells, the 50% growth inhibitory concentration (GI50) was found to be 2.5 µM. In addition, the values for the IC50 against HDAC1, on HDAC6 and on HDAC8 were 1 to 10 µM, 1 to 10 µM and at most 0.1 µM, respectively.

As for `O=C(/C=C/c1ccccc1OC1CCN(C(=O)c2ccccc2)CC1)NO` [Compound 20, (E)-3-(2-(1-benzoylpiperidin-4-yloxy)phenyl)-N-hydroxyacrylamide], in the assay with Jurkat cells, the 50% growth inhibitory concentration (GI50) turned out to be 9.7 µM. The 50% inhibitory concentration (IC50) was 1 to 10 µM against HDAC1, 1 to 10 µM on HDAC6 and at most 0.1 µM at HDAC8.

Take `CN1CCN(CCOc2ccc(/C=C/C(=O)NO)c(Oc3cccc(Cl)c3)c2)CC1` [Compound 68, (E)-3-(2-(3-chlorophenoxy)-4-(2-(4-methylpiperazin-1-yl)ethoxy)phenyl)-N-hydroxyacrylamide]: the half-inhibitory concentration (IC50) was 1 to 10 µM on HDAC1, 0.1 to 1 µM on HDAC6 and at most 0.1 µM against HDAC8.

`O=C(/C=C/c1ccccc1Oc1ccccc1)NO` [Compound 7, (E)-N-Hydroxy-3-(2-phenoxyphenyl)acrylamide]: the 50% inhibitory concentration (IC50) against HDAC1 is 1 to 10 µM; on HDAC6, 0.1 to 1 µM; at HDAC8, at most 0.1 µM.

Consider `O=C(/C=C/c1ccccc1Oc1cccc(F)c1)NO` [Compound 14, (E)-3-(2-(3-Fluorophenoxy)phenyl)-N-hydroxyacrylamide], for which the 50% growth inhibitory concentration (GI50) with Jurkat cells amounted to 3.58 µM. The IC50 on HDAC1 was 1 to 10 µM; against HDAC6 it was 1 to 10 µM; against HDAC8, at most 0.1 µM.

Consider `O=C(/C=C/c1cc(NCc2cccnc2)ccc1Oc1ccc(F)cc1)NO` [Compound 49, (E)-3-(2-(4-fluorophenoxy)-5-(pyridin-3-ylmethylamino)phenyl)-N-hydroxyacrylamide], for which the results for the half-inhibitory concentration (IC50) against HDAC1, at HDAC6 and on HDAC8 were above 10 µM, 1 to 10 µM and at most 0.1 µM, respectively.

On to `CN(C)CCOc1ccc(/C=C/C(=O)NO)c(Oc2cccc(Cl)c2)c1` [Compound 69, (E)-3-(2-(3-chlorophenoxy)-4-(2-(dimethylamino)ethoxy)phenyl)-N-hydroxyacrylamide], for which the 50% inhibitory concentration (IC50) against HDAC1 is 0.1 to 1 µM; at HDAC6 it was 0.1 to 1 µM; on HDAC8 it was at most 0.1 µM.

In the case of `O=C(/C=C/c1ccccc1Oc1ccc(Cl)cc1)NO` [Compound 6, (E)-3-(2-(4-chlorophenoxy)phenyl)-N-hydroxyacrylamide], the GI50 in the assay on Jurkat cells turned out to be 1.43 µM. Further, the half-maximal inhibitory concentration (IC50) on HDAC1 is 1 to 10 µM; at HDAC6, 1 to 10 µM; against HDAC8, at most 0.1 µM.

Consider `COc1ccc(Oc2ccccc2/C=C/C(=O)NO)cc1` [Compound 10, (E)-N-hydroxy-3-(2-(4-methoxyphenoxy)phenyl)acrylamide], for which the 50% growth inhibitory concentration (GI50) in the assay on Jurkat cells turned out to be 2.25 µM. Also, the values for the half-inhibitory concentration (IC50) against HDAC1, against HDAC6 and at HDAC8 were 1 to 10 µM, 0.1 to 1 µM and at most 0.1 µM, respectively.

With `O=C(/C=C/c1ccccc1Oc1ccncc1)NO` [Compound 17, (E)-N-Hydroxy-3-(2-(pyridin-4-yloxy)phenyl)acrylamide], the IC50 at HDAC1 was above 10 µM; against HDAC6, above 10 µM; against HDAC8 it was at most 0.1 µM.

For `COc1cccc(Oc2ccccc2/C=C/C(=O)NO)c1` [Compound 15, (E)-N-hydroxy-3-(2-(3-methoxyphenoxy)phenyl)acrylamide], in the assay with Jurkat cells, the GI50 is 3.37 µM. In addition, the IC50 was 1 to 10 µM against HDAC1, 0.1 to 1 µM against HDAC6 and at most 0.1 µM against HDAC8.

In the case of `O=C(/C=C/c1ccccc1Oc1cccnc1)NO` [Compound 16, (E)-N-Hydroxy-3-(2-(pyridin-3-yloxy)phenyl)acrylamide], in the assay on Jurkat cells, the GI50 is above 20 µM. Also, the half-maximal inhibitory concentration (IC50) against HDAC1 is 1 to 10 µM; on HDAC6, 1 to 10 µM; on HDAC8, at most 0.1 µM.

Consider `O=C(/C=C/c1ccc(OCCN2CCOCC2)cc1Oc1cccc(Cl)c1)NO` [Compound 67, (E)-3-(2-(3-chlorophenoxy)-4-(2-morpholinoethoxy)phenyl)-N-hydroxyacrylamide], for which the 50% inhibitory concentration (IC50) on HDAC1 is 1 to 10 µM; on HDAC6 it was 0.1 to 1 µM; against HDAC8, at most 0.1 µM.

On to `CC(=O)Nc1ccc(Oc2cccc(Cl)c2)c(/C=C/C(=O)NO)c1` [Compound 42, (E)-3-(5-acetamido-2-(3-chlorophenoxy)phenyl)-N-hydroxyacrylamide], for which the IC50 against HDAC1 was above 10 µM; at HDAC6 it was above 10 µM; against HDAC8 it was at most 0.1 µM.

Turning to `O=C(/C=C/c1ccccc1Oc1cccc(Cl)c1)NO` [Compound 11, (E)-3-(2-(3-Chlorophenoxy)phenyl)-N-hydroxyacrylamide], the GI50 in the assay with Jurkat cells stood at 1.98 µM. The 50% inhibitory concentration (IC50) at HDAC1 is 1 to 10 µM; against HDAC6 it was 0.1 to 1 µM; on HDAC8 it was at most 0.1 µM.

`Cc1ccc(Oc2ccccc2/C=C/C(=O)NO)cc1` [Compound 8, (E)-3-(2-(p-Tolyloxy)phenyl)-N-hydroxyacrylamide]: the GI50 with Jurkat cells worked out at 6.1 µM. Further, the values for the concentration for half-maximal inhibition (IC50) against HDAC1, against HDAC6 and at HDAC8 were 1 to 10 µM, 0.1 to 1 µM and at most 0.1 µM, respectively.

Consider `O=C(/C=C/c1ccccc1Oc1ccc(Cl)c(Cl)c1)NO` [Compound 12, (E)-3-(2-(3,4-Dichlorophenoxy)phenyl)-N-hydroxyacrylamide], for which the concentration for 50% growth inhibition (GI50) with Jurkat cells stood at 1.8 µM. For the same molecule, the IC50 on HDAC1 was 1 to 10 µM; against HDAC6 it was 1 to 10 µM; against HDAC8, at most 0.1 µM.

These data come from patent publication US20150045367A1, “CINNAMIC ACID HYDROXYAMIDES AS INHIBITORS OF HISTONE DEACETYLASE 8” (PHARMACYCLICS, INC., priority 2011, published 2015).
